Test results taken from patent publication US20090041666A1, “Ophthalmic formulations of Amyloid-beta contrast agent and methods of use thereof” (priority 2007, published 2009).
Like-named read-outs stand apart in the source and are kept apart here.

How the values were obtained:
[1] = Particle size after the grinding process; assay type: physicochemical; conditions: micronized by the grinding process
Method: For example, Polysorbate 80 is weighed into a polypropylene bottle, and an initial amount of sterile water for injection, USP, is weighed into the bottle. Next, Methoxy-X04 is weighed and added to the bottle. The current batch weight is determined, and the final amount of sterile water for injection to adjust the formulation to a final batch weight is added. Then, the YTZ grinding media is added to the bottle, and the bottle is placed on a roller mill for a minimum of 12 hours at a setting of 50%.
After the milling process, a polishing filter and Masterflex tubing are connected to the bottom of a Millipore housing assembly, while a high-pressure hose is attached to the top of the Millipore housing. Using a nitrogen pressure gauge, the solution is pushed thorough the housing and the polish filter. For example, the pressure used is between 3 psi and 5 psi. This grinding process yields micronized Methoxy-X04 having a mean particle size of 1.157 μm with 100% of particles smaller than 10 μm and greater than 75% of particles smaller than 5 μm. Thus, those skilled in the art will recognize that this exemplary milling process produces Methoxy-X04 particles that are suitable for either topical or parenteral formulation, without requiring the use of solvents, such as dimethyl sulfoxide, that are incompatible with use in drug formulations.

[2] = system: Aβ plaques; conditions: in vivo animal models and ex vivo human tissue (CR: Aβ aggregations); cited from earlier work
[3] = Solubility in water and in ophthalmic carriers; assay type: physicochemical
Source text: Specifically, a mixture of approximately 85% petrolatum and 15% mineral oil is a suitable carrier. […] The petrolatum in this ophthalmic formulation can act as a carrier for a combination of dissolved and suspended Methoxy-X04, by altering the aqueous portions of the eye to accept the compound more readily by adding lipophilic material to the solution of the eye's environment and by altering the interactions of the eye with the compound by shielding it from the aqueous environment.
Hydroxypropyl methylcellulose can act in part as a carrier of microparticles in suspension for a mixture of dissolved and suspended Methoxy-X04. This effect occurs by altering the aqueous portions of the eye to enable them to accept the hydrophobic compounds more readily, by adding lipophilic material to the eye's environment and/or by altering the interactions of the compound with the eye by shielding the hydrophobic compound from the aqueous environment.
X34 (Formula II) is a ligand molecule that is derived from Congo Red by replacing the naphthalene sulfonic acids with salicylic acids and the azo linkage with an ethenyl link. […] At room temperature, X34 is a yellow powder, which fluoresces upon exposure to UV light. The logPoct for X34 is 0.42. […] Preferably, ophthalmic formulations containing X34 (or other hydrophilic compounds of Formula I) have LogD values of between 1 and 3.

[4] = cited from earlier work
[5] = injected into the tail; ex vivo 2-photon fluorescent microscopy; cited from earlier work
[6] = biological target: T1, Aβ(1-40) (Homo sapiens, UniProt P05067); conditions: * = compound only partially soluble at this concentration, cited from earlier work
T1 construct: Aβ(1-40)

[7] = pH 7.4; cited from earlier work
[8] = Octanol-water partition coefficient; assay type: physicochemical; conditions: pH 7.4
Source text: Those skilled in the art will recognize that the hydrophobicity and hydrophilicity of a substance can be measured using the octanol-water partition coefficient (“Poct” or “Kow”), for compounds whose solubility is not altered by the pH and ionic characteristic of the solute, or LogD value, for compounds whose solubility is altered by the pH and ionic characteristic of the solute. LogD is the logarithm of the distribution coefficient, which is the ratio of the sum of the concentrations of all species of a compound in octanol to the sum of the concentrations of all species of the compound in water.
In these contexts, hydrophobicity is related to factors such as absorption, bioavailabity, hydrophobic drug-receptor interactions, metabolism, and/or toxicity. As used herein, the logPoct is synonymous to logKow, and both measurements are used interchangeably herein. Likewise, logPoct is a functionally equivalent measure to LogD; both values reflect the degree of solubility of a given compound.

[9] = given as Inact, tested at 10 μm

T1 sequence (P05067 672-711 limits assumed): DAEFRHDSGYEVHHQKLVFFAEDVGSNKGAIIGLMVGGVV

COc1cc(/C=C/c2ccc(O)cc2)ccc1/C=C/c1ccc(O)cc1 [2-CH3O-X:E:B04]
mean particle size [1]: 1.157 μm | particles smaller than 5 μm [1]: greater than 75% | particles smaller than 10 μm [1]: 100% | binding to Aβ plaques / aggregations [2]: selectively binds to Aβ plaques | solubility in water [3]: insoluble | state in carrier at 10 mg/gm ([3]; 10 mg/gm of carrier, petrolatum and mineral oil): remains primarily in suspension | state in carrier at 0.1% ([3]; 0.1% (1 mg per gm carrier), aqueous formulation with hydroxypropyl methylcellulose): remains in solution | state in carrier at 0.1% ([3]; 0.1% (1 mg per gm of carrier), about 85% petrolatum and 15% mineral oil): remains in solution | Oral rat LD50 [4]: ~15000 mg/kg | detection in the lens [5]: could be detected in the supranuclear region of the lens | Ki ([6]; [3H]CG binding to Aβ(1-40)): 27 nM

COc1ccc(/C=C/c2ccc(/C=C/c3ccc(OC)cc3)c(OC)c2)cc1 [2′-CH3O-X:E:B04 bis(4-methoxy)]
Ki [6, 9]: > 10000 nM

Oc1ccc(/C=C/c2ccc(/C=C/c3ccc(O)cc3)c(O)c2)cc1 [2′-HO-X:E:B04]
Ki ([6]; [3H]CG binding to Aβ(1-40)): 9 nM

COc1ccc(/C=C/c2ccc(/C=C/c3ccc(OC)cc3)c(O)c2)cc1 [2′-HO-X:E:B04bis(4-methoxy)]
Ki [6, 9]: > 10000 nM

O=C(O)c1cc(/N=N/c2ccc(-c3ccc(/N=N/c4ccc(O)c(C(=O)O)c4)cc3)cc2)ccc1O [CG, Chrysamine G]
logPoct [7]: 1.8 | octanol-water partition coefficient (Poct) [7]: 60 | Poct of CG relative to CR [8]: ~100 fold

Nc1c(/N=N/c2ccc(-c3ccc(/N=N/c4cc(S(=O)(=O)O)c5ccccc5c4N)cc3)cc2)cc(S(=O)(=O)O)c2ccccc12 [CR, Congo Red]
binding to Aβ plaques / aggregations [2]: selectively binds to Aβ aggregations with high affinity | logPoct [7]: 0.18 | octanol-water partition coefficient (Poct) [7]: 0.7

COc1ccc(/C=C/c2ccc(/C=C/c3ccc(OC)cc3)cc2)cc1 [X:E:B04 bis(4-methoxy)]
Ki [6, 9]: > 10000 nM

Oc1ccc(/C=C/c2ccc(/C=C/c3ccc(O)cc3)cc2)cc1 [X:E:B04]
Ki ([6]; [3H]CG binding to Aβ(1-40)): 3100 nM

COC(=O)c1cccc(/C=C/c2ccc(/C=C/c3cccc(C(=O)OC)c3)cc2)c1 [X:E:B30 dimethylester]
Ki [6, 9]: > 10000 nM

O=C(O)c1cccc(/C=C/c2ccc(/C=C/c3cccc(C(=O)O)c3)cc2)c1 [X:E:B30]
Ki ([6]; [3H]CG binding to Aβ(1-40)): 135 nM

O=C(O)c1cc(/C=C/c2ccc(/C=C/c3ccc(O)c(C(=O)O)c3)cc2)ccc1O [X:E:B34 (X-34)]
binding to Aβ plaques / aggregations [2]: selectively binds to β-amyloid plaques | solubility in water [3]: moderately soluble | state in carrier at 0.1% ([3]; 0.1% of X34 (1 mg active per gm of carrier)): appears to remain in solution | Oral rat LD50 [4]: ~15000 mg/kg | Ki ([6]; [3H]CG binding to Aβ(1-40)): 18 nM

COC(=O)c1cc(/C=C/c2ccc(/C=C/c3ccc(OC)c(C(=O)OC)c3)cc2)ccc1OC [X:E:B34 bis(4-methoxy) dimethyl ester]
Ki [6, 9]: > 10000 nM

COc1ccc(/C=C/c2ccc(/C=C/c3ccc(OC)c(C(=O)O)c3)cc2)cc1C(=O)O [X:E:B34 bis(4-methoxy)]
Ki ([6]; [3H]CG binding to Aβ(1-40)): 47 nM

COC(=O)c1cc(/C=C/c2ccc(/C=C/c3ccc(O)c(C(=O)OC)c3)cc2)ccc1O [X:E:B34 dimethylester]
Ki ([6]; [3H]CG binding to Aβ(1-40)): 119 nM
